In assay [1] the target is Calcium/calmodulin-dependent protein kinase type 1G (Homo sapiens) (UniProt Q96NX5). Briefly: Inhibition of CAMK1G (unknown origin) assessed as remaining activity at 1 uM by Kinome scan method relative to control.
Assay [2] relates to Epidermal growth factor receptor (Homo sapiens), P00533 [UNDEFINED MUTATION]. Briefly: Inhibition of EGFR L747-E749del/A750P mutant (unknown origin) assessed as remaining activity at 1 uM by Kinome scan method relative to control.
The target of assay [3] is Ephrin type-B receptor 2 (Homo sapiens) (UniProt P29323). The assay is described as follows: Inhibition of EPHB2 (unknown origin) assessed as remaining activity at 1 uM by Kinome scan method relative to control.
Assay [4] concerns the target Mitogen-activated protein kinase 15 (Homo sapiens) (UniProt Q8TD08). Briefly: Inhibition of ERK8 (unknown origin) assessed as remaining activity at 1 uM by Kinome scan method relative to control.
For assay [5], the target named is Tyrosine-protein kinase Mer (Homo sapiens) (UniProt Q12866). The assay is described as follows: Inhibition of MERTK (unknown origin) assessed as remaining activity at 1 uM by Kinome scan method relative to control.
The target of assay [6] is Serine/threonine-protein kinase 4 (Homo sapiens) (UniProt Q13043). The assay is described as follows: Inhibition of MST1 (unknown origin) assessed as remaining activity at 1 uM by Kinome scan method relative to control.
Chain of Serine/threonine-protein kinase 4 (Homo sapiens) (Q13043 whole entry): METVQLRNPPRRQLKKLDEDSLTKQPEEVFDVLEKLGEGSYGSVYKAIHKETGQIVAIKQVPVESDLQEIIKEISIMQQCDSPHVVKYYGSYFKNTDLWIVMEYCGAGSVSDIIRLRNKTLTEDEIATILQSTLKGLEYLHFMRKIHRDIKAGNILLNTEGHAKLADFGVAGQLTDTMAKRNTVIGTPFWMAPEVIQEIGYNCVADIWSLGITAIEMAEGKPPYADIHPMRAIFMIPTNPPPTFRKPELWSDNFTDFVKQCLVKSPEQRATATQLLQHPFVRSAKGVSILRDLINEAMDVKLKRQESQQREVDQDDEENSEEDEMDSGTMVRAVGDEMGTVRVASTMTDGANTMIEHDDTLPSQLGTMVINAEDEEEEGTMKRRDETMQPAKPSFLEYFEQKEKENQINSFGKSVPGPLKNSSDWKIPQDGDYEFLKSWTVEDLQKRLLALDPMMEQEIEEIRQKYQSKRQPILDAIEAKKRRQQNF
Assay [7] addresses Serine/threonine-protein kinase OSR1 (Homo sapiens) (UniProt O95747). The assay is described as follows: Inhibition of OSR1 (unknown origin) assessed as remaining activity at 1 uM by Kinome scan method relative to control.
The target of assay [8] is CDK3/Cyclin E (Homo sapiens) (UniProt P24864+Q00526). Briefly: Inhibition of human CDK3/CyclinE1 assessed as residual activity at 1 uM using RBER-CHKtide as substrate in presence of 33P-ATP by ProQinase assay relative to control. The assay is classed as protein-complex assay.
Chain of CDK3/Cyclin E (Homo sapiens) (P24864 whole entry, looked up): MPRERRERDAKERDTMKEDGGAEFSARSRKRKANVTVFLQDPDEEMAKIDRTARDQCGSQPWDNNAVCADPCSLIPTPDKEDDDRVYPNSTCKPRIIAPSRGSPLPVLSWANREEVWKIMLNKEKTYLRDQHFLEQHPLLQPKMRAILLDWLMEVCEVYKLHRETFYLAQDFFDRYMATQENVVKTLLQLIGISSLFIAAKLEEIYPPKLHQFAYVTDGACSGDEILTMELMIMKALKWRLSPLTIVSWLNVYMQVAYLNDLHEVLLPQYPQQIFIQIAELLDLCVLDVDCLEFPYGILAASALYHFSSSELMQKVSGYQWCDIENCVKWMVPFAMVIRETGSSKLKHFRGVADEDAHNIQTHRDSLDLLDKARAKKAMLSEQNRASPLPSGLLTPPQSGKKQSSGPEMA
Chain of CDK3/Cyclin E (Homo sapiens) (Q00526 whole entry, looked up): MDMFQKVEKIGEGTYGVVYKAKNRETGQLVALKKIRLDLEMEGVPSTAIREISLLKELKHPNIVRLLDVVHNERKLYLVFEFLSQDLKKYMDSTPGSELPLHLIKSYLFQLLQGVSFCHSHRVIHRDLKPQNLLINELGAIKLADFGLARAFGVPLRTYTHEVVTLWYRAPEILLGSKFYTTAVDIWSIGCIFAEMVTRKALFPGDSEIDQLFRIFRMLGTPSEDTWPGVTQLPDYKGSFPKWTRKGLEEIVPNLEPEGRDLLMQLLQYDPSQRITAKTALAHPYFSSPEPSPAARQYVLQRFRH
For assay [9], the system named is Epidermal growth factor receptor (Homo sapiens), P00533 [UNDEFINED MUTATION]. Briefly: Inhibition of human EGFR d747-752/P753S mutant assessed as residual activity at 1 uM using PolyEY as substrate in presence of 33P-ATP by ProQinase assay relative to control.
Assay [10] concerns the target Interferon-induced, double-stranded RNA-activated protein kinase (Homo sapiens) (UniProt P19525). The assay is described as follows: Inhibition of human EIF2AK2 assessed as residual activity at 1 uM using RB-CTF as substrate in presence of 33P-ATP by ProQinase assay relative to control.
The target in assay [11] is Ephrin type-A receptor 8 (Homo sapiens) (UniProt P29322). The assay is described as follows: Inhibition of human EPHA8 assessed as residual activity at 1 uM using polyEy as substrate in presence of 33P-ATP by ProQinase assay relative to control.
Chain of Ephrin type-A receptor 8 (Homo sapiens) (P29322 whole entry): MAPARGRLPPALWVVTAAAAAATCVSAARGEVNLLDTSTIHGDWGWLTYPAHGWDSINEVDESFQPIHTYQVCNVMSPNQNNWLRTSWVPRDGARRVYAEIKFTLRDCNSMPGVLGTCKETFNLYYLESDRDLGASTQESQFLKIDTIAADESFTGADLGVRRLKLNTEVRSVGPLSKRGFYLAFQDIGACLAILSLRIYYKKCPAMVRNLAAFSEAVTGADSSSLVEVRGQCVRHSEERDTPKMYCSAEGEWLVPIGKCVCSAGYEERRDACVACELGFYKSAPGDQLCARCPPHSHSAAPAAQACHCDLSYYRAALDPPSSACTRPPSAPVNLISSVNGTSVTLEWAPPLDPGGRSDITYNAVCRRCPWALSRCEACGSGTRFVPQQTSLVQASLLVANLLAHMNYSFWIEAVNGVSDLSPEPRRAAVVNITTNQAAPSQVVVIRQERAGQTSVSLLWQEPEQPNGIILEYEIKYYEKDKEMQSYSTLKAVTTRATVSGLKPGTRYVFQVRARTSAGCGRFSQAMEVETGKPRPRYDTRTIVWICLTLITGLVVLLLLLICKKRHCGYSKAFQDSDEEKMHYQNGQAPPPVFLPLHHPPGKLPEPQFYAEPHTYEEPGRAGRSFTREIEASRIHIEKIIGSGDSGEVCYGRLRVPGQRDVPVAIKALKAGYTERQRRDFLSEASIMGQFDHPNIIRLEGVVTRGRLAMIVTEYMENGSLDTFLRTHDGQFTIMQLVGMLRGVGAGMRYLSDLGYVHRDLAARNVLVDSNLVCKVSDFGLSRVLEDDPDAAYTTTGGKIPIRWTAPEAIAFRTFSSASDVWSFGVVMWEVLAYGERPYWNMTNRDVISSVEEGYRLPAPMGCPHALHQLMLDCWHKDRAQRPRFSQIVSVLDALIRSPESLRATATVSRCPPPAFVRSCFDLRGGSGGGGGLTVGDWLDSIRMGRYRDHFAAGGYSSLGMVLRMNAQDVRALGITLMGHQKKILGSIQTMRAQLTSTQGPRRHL
The target of assay [12] is Serine/threonine-protein kinase mTOR (Homo sapiens) (UniProt P42345). Briefly: Inhibition of human mTOR assessed as residual activity at 1 uM using casein as substrate in presence of 33P-ATP by ProQinase assay relative to control.
Assay [13] has as its target Serine/threonine-protein kinase PAK 5 (Homo sapiens) (UniProt Q9P286). Briefly: Inhibition of human PAK7 assessed as residual activity at 1 uM using bio-4xCHKT as substrate in presence of 33P-ATP by ProQinase assay relative to control.
The target of assay [14] is Serine/threonine-protein kinase pim-3 (Homo sapiens) (UniProt Q86V86). Briefly: Inhibition of human PIM3 assessed as residual activity at 1 uM using RBER-GSK3(14-27) as substrate in presence of 33P-ATP by ProQinase assay relative to control.
Assay [15] addresses Protein kinase C eta type (Homo sapiens) (UniProt P24723). Briefly: Inhibition of human PKCeta assessed as residual activity at 1 uM using histon H2B as substrate in presence of 33P-ATP by ProQinase assay relative to control.
Assay [16] addresses T1, Serine/threonine-protein kinase PLK4 (Homo sapiens) (UniProt O00444).
T1 sequence (whole entry): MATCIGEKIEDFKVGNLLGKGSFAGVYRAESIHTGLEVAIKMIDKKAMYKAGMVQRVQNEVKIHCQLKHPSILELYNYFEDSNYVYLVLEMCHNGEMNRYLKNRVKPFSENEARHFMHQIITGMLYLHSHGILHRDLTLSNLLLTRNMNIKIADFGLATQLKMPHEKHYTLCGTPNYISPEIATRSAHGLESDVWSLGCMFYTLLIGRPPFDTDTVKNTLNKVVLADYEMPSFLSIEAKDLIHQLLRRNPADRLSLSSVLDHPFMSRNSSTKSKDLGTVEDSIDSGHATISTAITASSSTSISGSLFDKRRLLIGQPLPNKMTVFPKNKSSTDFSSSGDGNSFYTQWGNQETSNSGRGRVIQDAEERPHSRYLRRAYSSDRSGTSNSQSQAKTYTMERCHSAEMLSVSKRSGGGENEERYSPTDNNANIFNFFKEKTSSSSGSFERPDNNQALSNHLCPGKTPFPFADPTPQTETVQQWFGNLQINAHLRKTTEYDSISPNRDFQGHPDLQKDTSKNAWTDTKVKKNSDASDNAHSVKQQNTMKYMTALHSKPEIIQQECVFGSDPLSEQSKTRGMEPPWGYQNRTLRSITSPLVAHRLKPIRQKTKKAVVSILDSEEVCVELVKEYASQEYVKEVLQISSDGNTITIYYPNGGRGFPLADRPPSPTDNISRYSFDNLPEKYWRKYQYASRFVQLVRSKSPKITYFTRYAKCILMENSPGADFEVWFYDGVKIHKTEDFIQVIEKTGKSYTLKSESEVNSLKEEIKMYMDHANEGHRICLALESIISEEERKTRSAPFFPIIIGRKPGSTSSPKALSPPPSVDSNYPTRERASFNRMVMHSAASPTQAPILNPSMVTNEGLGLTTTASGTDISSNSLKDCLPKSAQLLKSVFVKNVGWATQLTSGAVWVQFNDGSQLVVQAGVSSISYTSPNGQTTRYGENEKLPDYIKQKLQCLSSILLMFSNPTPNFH
Briefly: Inhibition of human SAK assessed as residual activity at 1 uM using p38-alpha KA as substrate in presence of 33P-ATP by ProQinase assay relative to control.

Chain of Epidermal growth factor receptor (Homo sapiens), P00533 [UNDEFINED MUTATION] (P00533 whole entry, looked up, stated change not applied): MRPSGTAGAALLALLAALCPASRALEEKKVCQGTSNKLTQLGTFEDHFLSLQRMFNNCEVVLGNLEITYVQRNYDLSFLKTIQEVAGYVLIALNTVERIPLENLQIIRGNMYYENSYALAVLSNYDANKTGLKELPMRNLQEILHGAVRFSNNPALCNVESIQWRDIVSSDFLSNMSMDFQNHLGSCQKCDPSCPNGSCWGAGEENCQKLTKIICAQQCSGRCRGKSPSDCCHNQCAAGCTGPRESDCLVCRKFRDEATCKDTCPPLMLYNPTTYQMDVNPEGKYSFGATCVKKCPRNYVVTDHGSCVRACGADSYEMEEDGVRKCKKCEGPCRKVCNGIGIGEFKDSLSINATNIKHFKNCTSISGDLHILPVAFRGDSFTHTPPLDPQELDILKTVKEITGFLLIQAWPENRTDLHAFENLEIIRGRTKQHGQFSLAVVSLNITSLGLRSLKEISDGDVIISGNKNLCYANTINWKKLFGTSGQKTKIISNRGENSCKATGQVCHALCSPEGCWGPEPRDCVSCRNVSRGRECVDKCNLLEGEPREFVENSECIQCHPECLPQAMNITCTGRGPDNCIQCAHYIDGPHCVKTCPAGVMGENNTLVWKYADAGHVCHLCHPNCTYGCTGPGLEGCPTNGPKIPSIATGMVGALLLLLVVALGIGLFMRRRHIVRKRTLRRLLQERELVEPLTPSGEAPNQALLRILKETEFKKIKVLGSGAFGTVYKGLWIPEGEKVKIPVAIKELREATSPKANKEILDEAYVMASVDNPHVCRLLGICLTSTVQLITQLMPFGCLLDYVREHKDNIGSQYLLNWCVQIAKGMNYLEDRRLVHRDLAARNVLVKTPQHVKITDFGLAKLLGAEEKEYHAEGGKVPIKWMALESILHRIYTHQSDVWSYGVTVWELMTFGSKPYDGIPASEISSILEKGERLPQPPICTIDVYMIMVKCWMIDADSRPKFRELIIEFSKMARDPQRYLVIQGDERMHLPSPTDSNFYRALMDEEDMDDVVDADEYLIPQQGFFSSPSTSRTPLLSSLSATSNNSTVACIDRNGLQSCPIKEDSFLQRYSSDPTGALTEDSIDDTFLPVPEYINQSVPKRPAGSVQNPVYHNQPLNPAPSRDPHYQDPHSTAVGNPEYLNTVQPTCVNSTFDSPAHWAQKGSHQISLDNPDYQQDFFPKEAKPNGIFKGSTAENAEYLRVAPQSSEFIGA
Chain of Interferon-induced, double-stranded RNA-activated protein kinase (Homo sapiens) (P19525 whole entry): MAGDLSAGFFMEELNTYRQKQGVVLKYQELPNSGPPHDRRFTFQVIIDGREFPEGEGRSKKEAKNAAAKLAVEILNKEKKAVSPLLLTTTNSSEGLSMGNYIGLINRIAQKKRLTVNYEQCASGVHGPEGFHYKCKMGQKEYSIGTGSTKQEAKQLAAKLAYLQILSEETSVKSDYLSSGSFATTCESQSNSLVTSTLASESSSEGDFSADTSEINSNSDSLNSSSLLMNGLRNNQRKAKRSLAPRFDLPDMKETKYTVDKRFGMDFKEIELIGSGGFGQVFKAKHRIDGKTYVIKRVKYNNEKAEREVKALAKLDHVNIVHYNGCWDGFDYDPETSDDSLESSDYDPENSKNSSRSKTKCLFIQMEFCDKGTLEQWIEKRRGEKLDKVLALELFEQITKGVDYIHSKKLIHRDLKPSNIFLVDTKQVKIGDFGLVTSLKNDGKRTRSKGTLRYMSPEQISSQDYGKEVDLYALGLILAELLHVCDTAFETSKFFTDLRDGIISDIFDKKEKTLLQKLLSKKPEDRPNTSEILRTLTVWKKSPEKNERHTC
Chain of Serine/threonine-protein kinase OSR1 (Homo sapiens) (O95747 2-527 limits assumed): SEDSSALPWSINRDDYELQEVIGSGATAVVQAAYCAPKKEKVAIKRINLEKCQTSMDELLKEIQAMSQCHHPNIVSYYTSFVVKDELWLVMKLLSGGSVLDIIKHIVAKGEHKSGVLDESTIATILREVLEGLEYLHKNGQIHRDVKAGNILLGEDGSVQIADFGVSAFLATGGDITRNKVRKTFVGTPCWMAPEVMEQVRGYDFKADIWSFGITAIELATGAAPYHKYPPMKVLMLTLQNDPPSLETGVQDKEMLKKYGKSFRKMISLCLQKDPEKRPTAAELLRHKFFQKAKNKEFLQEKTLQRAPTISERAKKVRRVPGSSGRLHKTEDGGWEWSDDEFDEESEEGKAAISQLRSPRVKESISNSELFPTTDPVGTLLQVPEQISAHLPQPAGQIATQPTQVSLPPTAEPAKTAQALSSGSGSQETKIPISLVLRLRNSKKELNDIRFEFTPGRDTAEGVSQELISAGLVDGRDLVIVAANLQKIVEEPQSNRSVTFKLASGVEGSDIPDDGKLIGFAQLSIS

As for `O=C1c2ccc(Nc3ccc(F)cc3F)cc2CCc2ccc(OC[C@H](O)CO)cc21` [Skepinone-L], the Activity stood at 96% in assay [1]; 82% in assay [2]; 97% in assay [3]; 99% in assay [4]; 92% in assay [5]; 100% in assay [6]. Besides, the Activity was 100% in assay [7]; 96% in assay [8]; 93% in [9]; 86% in assay [10]; 95% in [11]; 97% in assay [12]. Also, the Activity came to 87% in assay [13], 78% in assay [14], 97% in assay [15] and 62% in assay [16].

These data come from ChEMBL document CHEMBL5696441 (Nat Chem Biol, 2011).
